Data taken from patent publication US20250206732A1, “COMPOUNDS AND METHODS FOR THE TARGETED DEGRADATION OF KRAS” (Arvinas Operations, Inc., priority 2022, published 2025).
Blank lines part the entries; values can stand above or below the compound they belong to.

Biological target: T1, AsPC-1 HiBiT-KRASG12D (Homo sapiens, UniProt P01116, G12D)
T1 construct: insert the HiBiT tag onto the N-terminus of one or more of the endogenous KRAS alleles; endogenous in cells; host or cells: AsPC-1 (ATCC CRL-1682), CRISPR-Cas9 knock-in clone, one tagged allele
Assay: HiBiT degradation assay (G12D), AsPC-1 HiBiT-KRASG12D cells
Type: cell-based
Settings: 24 hours treatment; for Dmax: ASPC1, AsPC-1 HiBiT-KRASG12D cells, maximum degradation observed; for DC50: AsPC-1 HiBiT-KRASG12D cells, HiBiT luminescence
Outline: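 In this degradation format, an engineered AsPC-1 clone with HiBiT fused to the KRAS N-terminus is exposed to compounds for 24 hours, after which remaining tagged protein is quantified by lytic HiBiT luminescence.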

T1 sequence (P01116 1-188 isoform P01116-2 G12D): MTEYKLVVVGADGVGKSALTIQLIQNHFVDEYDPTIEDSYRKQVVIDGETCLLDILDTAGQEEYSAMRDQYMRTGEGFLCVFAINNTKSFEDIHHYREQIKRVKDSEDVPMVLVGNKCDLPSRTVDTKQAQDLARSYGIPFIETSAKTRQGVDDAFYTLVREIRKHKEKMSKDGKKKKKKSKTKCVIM

Compound: CCc1cccc2cc(O)cc(-c3ncc4c(N5CC6CCC(C5)N6)nc(OCCN5CCC(CC6CN(c7cc([C@H](C(=O)N8C[C@H](O)C[C@H]8C(=O)N[C@@H](C)c8ccc(-c9scnc9C)cc8)C(C)C)on7)C6)CC5)nc4c3F)c12 [Compound 81, (2S,4R)-1-[(2R)-2-(3-{3-[(1-{2-[(4-{3,8-diazabicyclo[3.2.1]octan-3-yl}-7-(8-ethyl-3-hydroxynaphthalen-1-yl)-8-fluoropyrido[4,3-d]pyrimidin-2-yl)oxy]ethyl}piperidin-4-yl)methyl]azetidin-1-yl}-1,2-oxazol-5-yl)-3-methylbutanoyl]-4-hydroxy-N-[(1S)-1-[4-(4-methyl-1,3-thiazol-5-yl)phenyl]ethyl]pyrrolidine-2-carboxamide]
Dmax: 80 to 100%
DC50: < 600 nM

Compound: CCc1cccc2cc(O)cc(-c3ncc4c(N5CC6CCC(C5)N6)nc(OC[C@]56CCCN5[C@H](COC(=O)N5C[C@@H](C)N(c7cc([C@@H](C(=O)N8C[C@H](O)C[C@H]8C(=O)N[C@@H](C)c8ccc(-c9scnc9C)cc8)C(C)C)on7)C[C@@H]5C)CC6)nc4c3F)c12 [Compound 297, [(3S,8R)-8-[[4-(3,8-diazabicyclo[3.2.1]octan-3-yl)-7-(8-ethyl-3-hydroxy-1-naphthyl)-8-fluoro-pyrido[4,3-d]pyrimidin-2-yl]oxymethyl]-1,2,3,5,6,7-hexahydropyrrolizin-3-yl]methyl (2S,5R)-4-[5-[(1S)-1-[(2S,4R)-4-hydroxy-2-[[(1S)-1-[4-(4-methylthiazol-5-yl)phenyl]ethyl]carbamoyl]pyrrolidine-1-carbonyl]-2-methyl-propyl]isoxazol-3-yl]-2,5-dimethyl-piperazine-1-carboxylate]
Dmax: < 20%
DC50: < 600 nM

DC50: > 3000 nM
Compound: CCc1cccc2cc(O)cc(-c3ncc4c(N5CC6CCC(C5)N6C=O)nc(OCCN5CCC(CC6CN(c7cc([C@H](C(=O)N8C[C@H](O)C[C@H]8C(=O)N[C@@H](C)c8ccc(-c9scnc9C)cc8)C(C)C)on7)C6)CC5)nc4c3F)c12 [Compound 246]

Compound: C#Cc1c(F)ccc2cc(O)cc(-c3ncc4c(N5CC6CCC(C5)N6)nc(OCCN5CCC(CC6CN(c7cc([C@H](C(=O)N8C[C@H](O)C[C@H]8C(=O)N[C@@H](C)c8ccc(-c9ccnn9C)cc8)C(C)C)on7)C6)CC5)nc4c3F)c12 [Compound 156, (2S,4R)-1-[(2R)-2-(3-{3-[(1-{2-[(4-{3,8-diazabicyclo[3.2.1]octan-3-yl}-7-(8-ethynyl-7-fluoro-3-hydroxynaphthalen-1-yl)-8-fluoropyrido[4,3-d]pyrimidin-2-yl)oxy]ethyl}piperidin-4-yl)methyl]azetidin-1-yl}-1,2-oxazol-5-yl)-3-methylbutanoyl]-4-hydroxy-N-[(1S)-1-[4-(1-methyl-1H-pyrazol-5-yl)phenyl]ethyl]pyrrolidine-2-carboxamide]
Dmax: 80 to 100%
DC50: < 600 nM

Compound: CCc1cccc2cc(O)cc(-c3ncc4c(N5CC6CCC(C5)N6)nc(OCCN5CCC6(CC5)CC(Oc5cc([C@@H](C(=O)N7C[C@H](O)C[C@H]7C(=O)N[C@@H](C)c7ccc(-c8scnc8C)cc7)C(C)C)on5)C6)nc4c3F)c12 [Compound 232]
Dmax: 20 to 60%
DC50: 1000 to 3000 nM

Compound: CCc1cccc2cc(O)cc(-c3ncc4c(N5CC6CCC(C5)N6)nc(OC[C@@]56CCCN5[C@H](COc5cc([C@@H](C(=O)N7C[C@H](O)C[C@H]7C(=O)N[C@@H](C)c7ccc(-c8scnc8C)cc7)C(C)C)on5)CC6)nc4c3F)c12 [Compound 30, (2S,4R)-1-[(2S)-2-(3-{[(3S,7aS)-7a-{[(4-{3,8-diazabicyclo[3.2.1]octan-3-yl}-7-(8-ethyl-3-hydroxynaphthalen-1-yl)-8-fluoropyrido[4,3-d]pyrimidin-2-yl)oxy]methyl}-hexahydro-1H-pyrrolizin-3-yl]methoxy}-1,2-oxazol-5-yl)-3-methylbutanoyl]-4-hydroxy-N-[(1S)-1-[4-(4-methyl-1,3-thiazol-5-yl)phenyl]ethyl]pyrrolidine-2-carboxamide]
Dmax: 20 to 60%
DC50: < 600 nM

Compound: CCc1cccc2cc(O)cc(-c3ncc4c(N5CC6CCC(C5)N6)nc(OCCN5CCC(O)(CC6CCN(c7cc([C@H](C(=O)N8C[C@H](O)C[C@H]8C(=O)N[C@@H](C)c8ccc(-c9scnc9C)cc8)C(C)C)on7)CC6)CC5)nc4c3F)c12 [Compound 204, (2S,4R)-1-[(2R)-2-(3-{4-[(1-{2-[(4-{3,8-diazabicyclo[3.2.1]octan-3-yl}-7-(8-ethyl-3-hydroxynaphthalen-1-yl)-8-fluoropyrido[4,3-d]pyrimidin-2-yl)oxy]ethyl}-4-hydroxypiperidin-4-yl)methyl]piperidin-1-yl}-1,2-oxazol-5-yl)-3-methylbutanoyl]-4-hydroxy-N-[(1S)-1-[4-(4-methyl-1,3-thiazol-5-yl)phenyl]ethyl]pyrrolidine-2-carboxamide]
Dmax: 80 to 100%
DC50: < 600 nM

Compound: CCc1cccc2cc(O)cc(-c3ncc4c(N5CC6CCC(C5)N6)nc(OCCN5CCC(F)(CN6CCN(c7cc([C@H](C(=O)N8C[C@H](O)C[C@H]8C(=O)N[C@@H](C)c8ccc(-c9scnc9C)cc8)C(C)C)on7)C[C@@H]6C)CC5)nc4c3F)c12 [Compound 214, (2S,4R)-1-[(2R)-2-{3-[(3S)-4-[(1-{2-[(4-{3,8-diazabicyclo[3.2.1]octan-3-yl}-7-(8-ethyl-3-hydroxynaphthalen-1-yl)-8-fluoropyrido[4,3-d]pyrimidin-2-yl)oxy]ethyl}-4-fluoropiperidin-4-yl)methyl]-3-methylpiperazin-1-yl]-1,2-oxazol-5-yl}-3-methylbutanoyl]-4-hydroxy-N-[(1S)-1-[4-(4-methyl-1,3-thiazol-5-yl)phenyl]ethyl]pyrrolidine-2-carboxamide]
Dmax: 80 to 100%
DC50: < 600 nM

Compound: CCc1cccc2cc(O)cc(-c3ncc4c(N5CC6CCC(C5)N6)nc(OC[C@]56CCCN5C[C@H](Oc5cc([C@@H](C(=O)N7C[C@H](O)C[C@H]7C(=O)N[C@@H](C)c7ccc(-c8scnc8C)cc7)C(C)C)on5)CC6)nc4c3F)c12 [Compound 319, (2S,4R)-1-[(2S)-2-[3-[[(6R,8aR)-8a-[[4-(3,8-diazabicyclo[3.2.1]octan-3-yl)-7-(8-ethyl-3-hydroxy-1-naphthyl)-8-fluoro-pyrido[4,3-d]pyrimidin-2-yl]oxymethyl]-2,3,5,6,7,8-hexahydro-1H-indolizin-6-yl]oxy]isoxazol-5-yl]-3-methyl-butanoyl]-4-hydroxy-N-[(1S)-1-[4-(4-methylthiazol-5-yl)phenyl]ethyl]pyrrolidine-2-carboxamide]
Dmax: 60 to 80%
DC50: 1000 to 3000 nM

Compound: CCc1cccc2cc(O)cc(-c3ncc4c(N5CC6CCC(C5)N6)nc(OCCN5CCC(CC6CN(c7cnc(C(=O)N[C@H](C(=O)N8C[C@H](O)C[C@H]8C(=O)N[C@@H](C)c8ccc(-c9scnc9C)cc8)C(C)(C)C)cn7)C6)CC5)nc4c3F)c12 [Compound 279]
Dmax: 60 to 80%
DC50: < 600 nM

Compound: CCc1cccc2cccc(-c3ncc4c(N5CC6CCC(C5)N6)nc(OC[C@]56CCCN5[C@H](COc5cc([C@@H](C(=O)N7C[C@H](O)C[C@H]7C(=O)N[C@@H](C)c7ccc(-c8scnc8C)cc7)C(C)C)on5)CC6)nc4c3F)c12 [Compound 310, (2S,4R)-1-[(2S)-2-[3-[[(3S,8R)-8-[[4-(3,8-diazabicyclo[3.2.1]octan-3-yl)-7-(8-ethyl-1-naphthyl)-8-fluoro-pyrido[4,3-d]pyrimidin-2-yl]oxymethyl]-1,2,3,5,6,7-hexahydropyrrolizin-3-yl]methoxy]isoxazol-5-yl]-3-methyl-butanoyl]-4-hydroxy-N-[(1S)-1-[4-(4-methylthiazol-5-yl)phenyl]ethyl]pyrrolidine-2-carboxamide]
Dmax: 80 to 100%
DC50: < 600 nM
